{"source": "patent US20220008401A1", "about": "“COMPOSITIONS AND METHODS FOR TREATING PULMONARY DISEASE WITH MATRIX METALLOPROTEINASE INHIBITORS” (DARSHA LLC, priority 2019, published 2022)", "key": {"neutrophils": {"tested_on": "neutrophils", "assay": "MTT assay of neutrophil viability", "type": "cell-based, human", "conditions": "1 hour exposure, high and low concentrations", "procedure": "To ensure the observed effects were not a result of reduced neutrophil viability, an MTT assay was utilized. Neutrophils were exposed to Compound 1 for 1 hour followed by addition of MTT to the culture medium for 30 minutes. Cells were then solubilized in DMSO and the absorbances were read on a microplate reader."}, "integrin β1": {"tested_on": "integrin β1", "assay": "Integrin β1 immunofluorescent staining of human neutrophils", "type": "cell-based", "conditions": "Compound 1 treatment for 1 hour, n=3, p<0.05", "source_text": "Regulation of cell motility by the integrin β1 subunit is well-documented in multiple cell types, with several lines of evidence indicating MMPs play a significant role in expression and cellular localization of integrin β1 during neutrophil migration (Dumin J A, et al. Pro-collagenase-1 (matrix metalloproteinase-1) binds the alpha(2)beta(1) integrin upon release from keratinocytes migrating on type I collagen. J Biol Chem 2001; 276(31); Ugarte-Berzal E, et al. A 17-residue sequence from the matrix metalloproteinase-9 (MMP-9) hemopexin domain binds alpha4beta1 integrin and inhibits MMP-9-induced functions in chronic lymphocytic leukemia B cells. J Biol Chem 2012; 287(33)). To determine if MMP inhibition by Compound 1 interfered with integrin β1 expression in human neutrophils, cells were seeded onto glass chamber slides followed by Compound 1 treatment for 1 hour. Cells were fixed and immunofluorescent staining was performed for integrin β1 and staining intensity was measured using NIH ImageJ and standardized to the number of cells per field."}}, "data": [{"substance": "butanamide, N-hydroxy-2-[[(4-hydroxyphenyl)sulfonyl](3-pyridinylmethyl)amino]-3-methyl, hydrochloride, (2R) [Compound 1]", "values": [{"measurement": "neutrophil viability (MTT, reductive capacity)", "setting": "neutrophils", "value": "no significant effect on neutrophil viability"}, {"measurement": "integrin β1 fluorescence intensity per cell", "setting": "integrin β1", "value": "2.88±1.23", "unit": "RFU"}]}]}
